In article PMC6421522, “Designing Dual Inhibitors of Anaplastic Lymphoma Kinase (ALK) and Bromodomain-4 (BRD4) by Tuning Kinase Selectivity” (Journal of Medicinal Chemistry, 2019):

Tests used:
Test in all cases: KINOMEscan scanEDGE
Type in all cases: binding
Details in all cases: read-out: % Control (1µM)
ACVR1B = biological target: T1, ACVR1B (Homo sapiens, UniProt P36896)
T1 construct: purchased DiscoveRx KINOMEscan (scanEDGE); Thermo Fisher SelectScreen (Z'-LYTE) for PLK-1
Method: (§1) Compound X was assayed at 1 μM in the DiscoveRx KINOMEscan (scanEDGE) assay platform. The results for single-concentration binding interactions are reported as “%Ctrl” (DMSO = 100%Ctrl), where lower numbers indicate stronger hits.

JNK3 = biological target: T2, JNK3 (Homo sapiens, UniProt P53779)
T2 construct: purchased DiscoveRx (DiscoverX)
T2 sequence (P53779 whole entry): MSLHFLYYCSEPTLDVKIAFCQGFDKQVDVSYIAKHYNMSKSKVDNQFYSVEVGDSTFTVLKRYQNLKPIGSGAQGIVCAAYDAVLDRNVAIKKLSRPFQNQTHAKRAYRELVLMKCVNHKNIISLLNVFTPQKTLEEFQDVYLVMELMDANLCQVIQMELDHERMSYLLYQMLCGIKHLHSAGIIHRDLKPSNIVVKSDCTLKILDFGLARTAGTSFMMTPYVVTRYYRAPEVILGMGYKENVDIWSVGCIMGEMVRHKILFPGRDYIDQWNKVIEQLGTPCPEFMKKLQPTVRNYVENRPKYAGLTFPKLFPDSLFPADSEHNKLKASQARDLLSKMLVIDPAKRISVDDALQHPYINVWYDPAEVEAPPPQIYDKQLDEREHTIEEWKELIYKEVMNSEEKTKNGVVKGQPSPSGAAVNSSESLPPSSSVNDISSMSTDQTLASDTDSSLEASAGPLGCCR
Method: as §1

MKNK1 = biological target: T3, MKNK1 (Homo sapiens, UniProt Q9BUB5)
T3 construct: purchased DiscoveRx KINOMEscan (scanEDGE); Thermo Fisher SelectScreen (Z'-LYTE) for PLK-1
Method: as §1

BRAF = biological target: T4, BRAF (Homo sapiens, UniProt P15056)
T4 construct: purchased DiscoveRx KINOMEscan (scanEDGE); Thermo Fisher SelectScreen (Z'-LYTE) for PLK-1
Method: as §1

IKK-alpha = biological target: T5, IKK-alpha (Homo sapiens, UniProt O15111)
T5 construct: purchased DiscoveRx KINOMEscan (scanEDGE); Thermo Fisher SelectScreen (Z'-LYTE) for PLK-1
T5 sequence (O15111 whole entry): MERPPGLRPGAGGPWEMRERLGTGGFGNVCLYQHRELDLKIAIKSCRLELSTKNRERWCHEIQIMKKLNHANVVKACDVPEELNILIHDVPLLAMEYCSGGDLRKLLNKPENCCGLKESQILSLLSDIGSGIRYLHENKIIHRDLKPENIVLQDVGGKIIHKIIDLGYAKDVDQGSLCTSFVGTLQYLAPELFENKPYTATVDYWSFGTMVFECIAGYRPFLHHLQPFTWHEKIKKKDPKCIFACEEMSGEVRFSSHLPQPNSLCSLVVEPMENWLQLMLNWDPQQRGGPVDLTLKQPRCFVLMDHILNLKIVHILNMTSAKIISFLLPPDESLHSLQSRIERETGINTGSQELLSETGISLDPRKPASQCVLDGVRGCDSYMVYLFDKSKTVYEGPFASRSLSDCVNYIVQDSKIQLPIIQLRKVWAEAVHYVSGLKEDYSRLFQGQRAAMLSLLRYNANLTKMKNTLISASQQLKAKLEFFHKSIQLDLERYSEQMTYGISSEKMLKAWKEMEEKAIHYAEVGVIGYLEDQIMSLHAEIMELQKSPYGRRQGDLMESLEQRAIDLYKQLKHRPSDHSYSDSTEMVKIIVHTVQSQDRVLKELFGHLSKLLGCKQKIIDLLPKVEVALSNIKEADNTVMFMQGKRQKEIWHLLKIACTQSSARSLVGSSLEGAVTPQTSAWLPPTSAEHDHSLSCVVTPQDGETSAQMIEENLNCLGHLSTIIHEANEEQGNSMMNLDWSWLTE
Method: as §1

MAP3K4 = biological target: T6, MAP3K4 (Homo sapiens, UniProt Q9Y6R4)
T6 construct: purchased DiscoveRx KINOMEscan (scanEDGE); Thermo Fisher SelectScreen (Z'-LYTE) for PLK-1
Method: as §1

[1] = biological target: T7, JAK2(JH1domain-catalytic) (Homo sapiens, UniProt O60674)
T7 construct: JAK2(JH1domain-catalytic); purchased DiscoveRx KINOMEscan (scanEDGE); Thermo Fisher SelectScreen (Z'-LYTE) for PLK-1
T7 sequence (O60674 840-1132 limits assumed): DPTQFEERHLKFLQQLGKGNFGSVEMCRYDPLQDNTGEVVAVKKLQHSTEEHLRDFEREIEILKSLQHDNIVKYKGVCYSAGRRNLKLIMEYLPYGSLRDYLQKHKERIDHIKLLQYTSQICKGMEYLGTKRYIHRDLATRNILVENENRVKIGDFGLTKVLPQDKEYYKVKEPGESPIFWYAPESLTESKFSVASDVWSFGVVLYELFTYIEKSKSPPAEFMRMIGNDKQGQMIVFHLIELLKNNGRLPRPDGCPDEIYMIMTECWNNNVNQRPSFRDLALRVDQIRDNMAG
Method: as §1

p38-alpha = biological target: T8, p38-alpha (Homo sapiens, UniProt Q16539)
T8 construct: purchased DiscoveRx KINOMEscan (scanEDGE); Thermo Fisher SelectScreen (Z'-LYTE) for PLK-1
Method: as §1

AURKB = biological target: T9, AURKB (Homo sapiens, UniProt Q96GD4)
T9 construct: purchased DiscoveRx KINOMEscan (scanEDGE); Thermo Fisher SelectScreen (Z'-LYTE) for PLK-1
Method: as §1

PDGFRB = biological target: T10, PDGFRB (Homo sapiens, UniProt P09619)
T10 construct: purchased DiscoveRx KINOMEscan (scanEDGE); Thermo Fisher SelectScreen (Z'-LYTE) for PLK-1
Method: as §1

PKAC-alpha = biological target: T11, PKAC-alpha (Homo sapiens, UniProt P17612)
T11 construct: purchased DiscoveRx KINOMEscan (scanEDGE); Thermo Fisher SelectScreen (Z'-LYTE) for PLK-1
Method: as §1

RET = biological target: T12, RET (Homo sapiens, UniProt P07949)
T12 construct: purchased DiscoveRx KINOMEscan (scanEDGE); Thermo Fisher SelectScreen (Z'-LYTE) for PLK-1
Method: as §1

FGFR3 = biological target: T13, FGFR3 (Homo sapiens, UniProt P22607)
T13 construct: purchased DiscoveRx KINOMEscan (scanEDGE); Thermo Fisher SelectScreen (Z'-LYTE) for PLK-1
Method: as §1

PIM3 = biological target: T14, PIM3 (Homo sapiens, UniProt Q86V86)
T14 construct: purchased DiscoveRx KINOMEscan (scanEDGE); Thermo Fisher SelectScreen (Z'-LYTE) for PLK-1
Method: as §1

PLK4 = biological target: T15, PLK4 (Homo sapiens, UniProt O00444)
T15 construct: purchased DiscoveRx KINOMEscan (scanEDGE); Thermo Fisher SelectScreen (Z'-LYTE) for PLK-1
Method: as §1

RIOK2 = biological target: T16, RIOK2 (Homo sapiens, UniProt Q9BVS4)
T16 construct: purchased DiscoveRx KINOMEscan (scanEDGE); Thermo Fisher SelectScreen (Z'-LYTE) for PLK-1
Method: as §1

PIK3CA = biological target: T17, PIK3CA (Homo sapiens, UniProt P42336)
T17 construct: purchased DiscoveRx KINOMEscan (scanEDGE); Thermo Fisher SelectScreen (Z'-LYTE) for PLK-1
Method: as §1

SRC = biological target: T18, SRC (Homo sapiens, UniProt P12931)
T18 construct: purchased DiscoveRx KINOMEscan (scanEDGE); Thermo Fisher SelectScreen (Z'-LYTE) for PLK-1
Method: as §1

ZAP70 = biological target: T19, ZAP70 (Homo sapiens, UniProt P43403)
T19 construct: purchased DiscoveRx (DiscoverX)
Method: as §1

[2] = biological target: T20, RSK2(Kin.Dom.1-N-terminal) (Homo sapiens, UniProt P51812)
T20 construct: RSK2(Kin.Dom.1-N-terminal); purchased DiscoveRx KINOMEscan (scanEDGE); Thermo Fisher SelectScreen (Z'-LYTE) for PLK-1
T20 sequence (P51812 68-327 limits assumed): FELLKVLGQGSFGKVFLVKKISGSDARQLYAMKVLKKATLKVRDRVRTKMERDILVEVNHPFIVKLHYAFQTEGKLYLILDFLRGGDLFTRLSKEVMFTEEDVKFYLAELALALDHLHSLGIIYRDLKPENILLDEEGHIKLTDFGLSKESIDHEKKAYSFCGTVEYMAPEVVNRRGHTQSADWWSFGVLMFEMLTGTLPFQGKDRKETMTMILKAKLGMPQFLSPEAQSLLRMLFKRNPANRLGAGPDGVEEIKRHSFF
Method: as §1

EGFR(L858R) = biological target: T21, EGFR(L858R) (Homo sapiens, UniProt P00533, L858R)
T21 construct: purchased DiscoveRx KINOMEscan (scanEDGE); Thermo Fisher SelectScreen (Z'-LYTE) for PLK-1
Method: as §1

JNK2 = biological target: T22, JNK2 (Homo sapiens, UniProt P45984)
T22 construct: purchased DiscoveRx (DiscoverX)
Method: as §1

CDK7 = biological target: T23, CDK7 (Homo sapiens, UniProt P50613)
T23 construct: purchased DiscoveRx KINOMEscan (scanEDGE); Thermo Fisher SelectScreen (Z'-LYTE) for PLK-1
Method: as §1

PAK2 = biological target: T24, PAK2 (Homo sapiens, UniProt Q13177)
T24 construct: purchased DiscoveRx KINOMEscan (scanEDGE); Thermo Fisher SelectScreen (Z'-LYTE) for PLK-1
T24 sequence (Q13177 whole entry): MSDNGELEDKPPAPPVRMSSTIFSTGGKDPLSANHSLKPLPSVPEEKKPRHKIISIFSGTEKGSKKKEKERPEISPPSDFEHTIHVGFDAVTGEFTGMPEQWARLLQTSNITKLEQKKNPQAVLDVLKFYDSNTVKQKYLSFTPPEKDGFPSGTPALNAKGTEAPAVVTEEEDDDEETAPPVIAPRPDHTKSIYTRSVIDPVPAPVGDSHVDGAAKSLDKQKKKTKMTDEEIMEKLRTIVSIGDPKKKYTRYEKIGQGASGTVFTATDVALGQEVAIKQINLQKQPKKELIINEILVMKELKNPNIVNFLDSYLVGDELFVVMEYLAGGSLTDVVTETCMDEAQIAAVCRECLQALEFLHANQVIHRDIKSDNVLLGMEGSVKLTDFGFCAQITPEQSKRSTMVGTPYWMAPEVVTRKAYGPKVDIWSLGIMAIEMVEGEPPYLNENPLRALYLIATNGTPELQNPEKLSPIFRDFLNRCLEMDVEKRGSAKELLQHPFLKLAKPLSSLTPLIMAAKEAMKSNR
Method: as §1

ERBB2 = biological target: T25, ERBB2 (Homo sapiens, UniProt P04626)
T25 construct: purchased DiscoveRx KINOMEscan (scanEDGE); Thermo Fisher SelectScreen (Z'-LYTE) for PLK-1
Method: as §1

PRKCE = biological target: T26, PRKCE (Homo sapiens, UniProt Q02156)
T26 construct: purchased DiscoveRx KINOMEscan (scanEDGE); Thermo Fisher SelectScreen (Z'-LYTE) for PLK-1
Method: as §1

PIM2 = biological target: T27, PIM2 (Homo sapiens, UniProt Q9P1W9)
T27 construct: purchased DiscoveRx KINOMEscan (scanEDGE); Thermo Fisher SelectScreen (Z'-LYTE) for PLK-1
Method: as §1

KIT = biological target: T28, KIT (Homo sapiens, UniProt P10721)
T28 construct: purchased DiscoveRx (DiscoverX)
T28 sequence (P10721 26-976): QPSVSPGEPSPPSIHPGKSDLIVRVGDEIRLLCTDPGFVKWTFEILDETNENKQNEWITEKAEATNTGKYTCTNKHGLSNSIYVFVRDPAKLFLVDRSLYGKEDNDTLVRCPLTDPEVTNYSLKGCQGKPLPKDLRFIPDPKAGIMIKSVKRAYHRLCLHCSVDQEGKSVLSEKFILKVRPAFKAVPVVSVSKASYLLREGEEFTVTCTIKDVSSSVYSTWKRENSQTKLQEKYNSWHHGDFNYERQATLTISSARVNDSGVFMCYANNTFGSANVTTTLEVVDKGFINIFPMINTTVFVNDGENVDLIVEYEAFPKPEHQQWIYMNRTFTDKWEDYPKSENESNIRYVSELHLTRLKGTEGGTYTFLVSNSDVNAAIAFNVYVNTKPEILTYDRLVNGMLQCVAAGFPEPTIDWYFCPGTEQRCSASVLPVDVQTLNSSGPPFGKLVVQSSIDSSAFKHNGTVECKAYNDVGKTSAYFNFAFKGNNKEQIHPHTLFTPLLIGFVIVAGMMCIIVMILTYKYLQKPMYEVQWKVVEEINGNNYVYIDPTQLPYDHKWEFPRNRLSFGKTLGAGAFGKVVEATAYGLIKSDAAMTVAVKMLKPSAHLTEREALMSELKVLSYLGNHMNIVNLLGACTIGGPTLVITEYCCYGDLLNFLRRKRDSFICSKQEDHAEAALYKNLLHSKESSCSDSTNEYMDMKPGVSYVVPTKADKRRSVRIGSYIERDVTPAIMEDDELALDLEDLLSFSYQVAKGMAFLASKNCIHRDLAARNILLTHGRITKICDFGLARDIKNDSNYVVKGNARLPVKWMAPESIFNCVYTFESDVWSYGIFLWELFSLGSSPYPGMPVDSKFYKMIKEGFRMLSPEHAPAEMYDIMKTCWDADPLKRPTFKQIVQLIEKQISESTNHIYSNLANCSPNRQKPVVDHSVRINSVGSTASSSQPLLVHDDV
Method: as §1

EPHA2 = biological target: T29, EPHA2 (Homo sapiens, UniProt P29317)
T29 construct: purchased DiscoveRx KINOMEscan (scanEDGE); Thermo Fisher SelectScreen (Z'-LYTE) for PLK-1
Method: as §1

AKT1 = biological target: T30, AKT1 (Homo sapiens, UniProt P31749)
T30 construct: purchased DiscoveRx KINOMEscan (scanEDGE); Thermo Fisher SelectScreen (Z'-LYTE) for PLK-1
Method: as §1

CDK2 = biological target: T31, CDK2 (Homo sapiens, UniProt P24941)
T31 construct: purchased DiscoveRx KINOMEscan (scanEDGE); Thermo Fisher SelectScreen (Z'-LYTE) for PLK-1
Method: as §1

AKT2 = biological target: T32, AKT2 (Homo sapiens, UniProt P31751)
T32 construct: purchased DiscoveRx KINOMEscan (scanEDGE); Thermo Fisher SelectScreen (Z'-LYTE) for PLK-1
Method: as §1

KIT(D816V) = biological target: T33, KIT(D816V) (Homo sapiens, UniProt P10721, D816V)
T33 construct: purchased DiscoveRx KINOMEscan (scanEDGE); Thermo Fisher SelectScreen (Z'-LYTE) for PLK-1
T33 sequence (P10721 26-976 D816V): as the sequence (P10721 26-976) above, with D791V counted along it
Method: as §1

YANK3 = biological target: T34, YANK3 (Homo sapiens, UniProt Q86UX6)
T34 construct: purchased DiscoveRx (DiscoverX)
Method: as §1

EGFR = biological target: T35, EGFR (Homo sapiens, UniProt P00533)
T35 construct: purchased DiscoveRx KINOMEscan (scanEDGE); Thermo Fisher SelectScreen (Z'-LYTE) for PLK-1
T35 sequence (P00533 25-1210): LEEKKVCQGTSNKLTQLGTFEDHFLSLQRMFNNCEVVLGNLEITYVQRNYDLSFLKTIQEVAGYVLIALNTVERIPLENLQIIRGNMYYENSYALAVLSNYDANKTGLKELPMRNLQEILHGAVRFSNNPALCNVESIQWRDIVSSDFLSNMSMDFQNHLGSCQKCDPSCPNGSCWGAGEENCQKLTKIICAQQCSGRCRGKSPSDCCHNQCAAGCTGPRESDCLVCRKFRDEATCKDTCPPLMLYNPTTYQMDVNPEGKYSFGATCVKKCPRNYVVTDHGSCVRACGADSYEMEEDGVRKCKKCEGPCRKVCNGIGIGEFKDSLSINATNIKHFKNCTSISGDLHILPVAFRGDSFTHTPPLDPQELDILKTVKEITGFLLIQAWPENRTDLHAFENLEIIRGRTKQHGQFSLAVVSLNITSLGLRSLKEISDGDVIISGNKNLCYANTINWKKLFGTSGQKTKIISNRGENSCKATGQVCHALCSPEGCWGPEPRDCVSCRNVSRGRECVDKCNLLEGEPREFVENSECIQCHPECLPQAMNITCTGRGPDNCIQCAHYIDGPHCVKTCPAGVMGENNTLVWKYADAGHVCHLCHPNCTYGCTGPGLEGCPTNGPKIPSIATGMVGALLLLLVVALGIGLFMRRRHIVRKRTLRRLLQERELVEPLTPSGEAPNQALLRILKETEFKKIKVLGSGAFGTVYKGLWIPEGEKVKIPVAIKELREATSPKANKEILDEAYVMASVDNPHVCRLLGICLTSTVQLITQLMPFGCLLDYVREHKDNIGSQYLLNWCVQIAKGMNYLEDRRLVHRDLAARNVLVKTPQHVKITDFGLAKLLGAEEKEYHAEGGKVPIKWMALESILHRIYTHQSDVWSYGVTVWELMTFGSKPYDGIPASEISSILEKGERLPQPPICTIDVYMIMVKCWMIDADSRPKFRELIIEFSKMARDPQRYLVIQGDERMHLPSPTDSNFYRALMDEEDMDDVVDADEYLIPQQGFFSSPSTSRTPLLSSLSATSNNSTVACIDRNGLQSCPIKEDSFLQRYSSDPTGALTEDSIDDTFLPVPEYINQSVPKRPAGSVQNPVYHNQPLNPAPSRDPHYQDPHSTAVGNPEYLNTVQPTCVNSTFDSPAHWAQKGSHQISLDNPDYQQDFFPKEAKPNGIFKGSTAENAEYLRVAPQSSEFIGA
Method: as §1

MEK2 = biological target: T36, MEK2 (Homo sapiens, UniProt P36507)
T36 construct: purchased DiscoveRx KINOMEscan (scanEDGE); Thermo Fisher SelectScreen (Z'-LYTE) for PLK-1
Method: as §1

MLK1 = biological target: T37, MLK1 (Homo sapiens, UniProt P80192)
T37 construct: purchased DiscoveRx KINOMEscan (scanEDGE); Thermo Fisher SelectScreen (Z'-LYTE) for PLK-1
Method: as §1

FAK = biological target: T38, FAK (Homo sapiens, UniProt Q05397)
T38 construct: purchased DiscoveRx KINOMEscan (scanEDGE); Thermo Fisher SelectScreen (Z'-LYTE) for PLK-1
Method: as §1

TGFBR1 = biological target: T39, TGFBR1 (Homo sapiens, UniProt P36897)
T39 construct: purchased DiscoveRx KINOMEscan (scanEDGE); Thermo Fisher SelectScreen (Z'-LYTE) for PLK-1
T39 sequence (P36897 34-503): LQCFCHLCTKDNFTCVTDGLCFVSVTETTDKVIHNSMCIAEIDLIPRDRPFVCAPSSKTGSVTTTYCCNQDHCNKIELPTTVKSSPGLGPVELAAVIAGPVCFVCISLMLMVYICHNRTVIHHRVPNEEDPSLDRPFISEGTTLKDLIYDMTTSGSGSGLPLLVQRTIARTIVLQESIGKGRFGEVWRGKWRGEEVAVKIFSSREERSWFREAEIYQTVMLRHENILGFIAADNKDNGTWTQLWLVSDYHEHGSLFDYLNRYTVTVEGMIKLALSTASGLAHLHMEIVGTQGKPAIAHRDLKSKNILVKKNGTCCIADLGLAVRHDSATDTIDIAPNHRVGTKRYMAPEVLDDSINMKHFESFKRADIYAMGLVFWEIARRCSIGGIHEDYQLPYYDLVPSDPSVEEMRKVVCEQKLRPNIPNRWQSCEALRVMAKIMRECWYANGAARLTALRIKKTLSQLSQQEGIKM
Method: as §1

PIM1 = biological target: T40, PIM1 (Homo sapiens, UniProt P11309)
T40 construct: purchased DiscoveRx KINOMEscan (scanEDGE); Thermo Fisher SelectScreen (Z'-LYTE) for PLK-1
Method: as §1

LKB1 = biological target: T41, LKB1 (Homo sapiens, UniProt Q15831)
T41 construct: purchased DiscoveRx KINOMEscan (scanEDGE); Thermo Fisher SelectScreen (Z'-LYTE) for PLK-1
Method: as §1

MEK1 = biological target: T42, MEK1 (Homo sapiens, UniProt Q02750)
T42 construct: purchased DiscoveRx KINOMEscan (scanEDGE); Thermo Fisher SelectScreen (Z'-LYTE) for PLK-1
Method: as §1

- remaining binding at 1 µM (ACVR1B): 85%
- remaining binding at 1 µM (JNK3): 39%
- remaining binding at 1 µM (MKNK1): 100%
- remaining binding at 1 µM (BRAF): 100%
- remaining binding at 1 µM (IKK-alpha): 97%
- remaining binding at 1 µM (MAP3K4): 92%
- remaining binding at 1 µM [1]: 83%
- remaining binding at 1 µM (p38-alpha): 92%
- remaining binding at 1 µM (AURKB): 86%
- remaining binding at 1 µM (PDGFRB): 100%
- remaining binding at 1 µM (PKAC-alpha): 100%
- remaining binding at 1 µM (RET): 99%
- remaining binding at 1 µM (FGFR3): 98%
- remaining binding at 1 µM (PIM3): 100%
- remaining binding at 1 µM (PLK4): 100%
- remaining binding at 1 µM (RIOK2): 74%
- remaining binding at 1 µM (PIK3CA): 96%
- remaining binding at 1 µM (SRC): 100%
- remaining binding at 1 µM (ZAP70): 94%
- remaining binding at 1 µM [2]: 59%
- remaining binding at 1 µM (EGFR(L858R)): 69%
- remaining binding at 1 µM (JNK2): 44%
- remaining binding at 1 µM (CDK7): 88%
- remaining binding at 1 µM (PAK2): 100%
- remaining binding at 1 µM (ERBB2): 100%
- remaining binding at 1 µM (PRKCE): 100%
- remaining binding at 1 µM (PIM2): 86%
- remaining binding at 1 µM (KIT): 100%
- remaining binding at 1 µM (EPHA2): 100%
- remaining binding at 1 µM (AKT1): 96%
- remaining binding at 1 µM (CDK2): 100%
- remaining binding at 1 µM (AKT2): 100%
- remaining binding at 1 µM (KIT(D816V)): 100%
- remaining binding at 1 µM (YANK3): 100%
- remaining binding at 1 µM (EGFR): 86%
- remaining binding at 1 µM (MEK2): 100%
- remaining binding at 1 µM (MLK1): 100%
- remaining binding at 1 µM (FAK): 60%
- remaining binding at 1 µM (TGFBR1): 94%
- remaining binding at 1 µM (PIM1): 97%
- remaining binding at 1 µM (LKB1): 82%
- remaining binding at 1 µM (MEK1): 100%
SMILES: CCOc1cc(C2CCN(C)CC2)ccc1Nc1ncc2c(n1)N(Cc1cc(C)cs1)[C@H](CC)C(=O)N2C [16k, (R)-2-((2-Ethoxy-4-(1-methylpiperidin-4-yl)phenyl)amino)-7-ethyl-5-methyl-8-((4-methylthiophen-2-yl)methyl)-7,8-dihydropteridin-6(5H)-one]
